The source of these data is PMC7815742 (Nature Communications, 2021).

One data set addresses T1, (UniProt A0A3A0FWV3).
T1 construct: GenBank RIL07334.1, purified wild type
The experiment in a line: in vitro [3H]-progesterone reduction assay with purified enzyme, HPLC radiodetection. It is filed as biochemical, Pseudomonadota bacterium.

Data set [1] concerns the molecule itself. The experiment in a line: AUC; sedimentation velocity, 20 °C, 25 mM HEPES pH 7.5, 150 mM NaCl, 5% glycerol, 0.02% DDM, 5 mM DTT; masses calculated with SEDFIT and GUSSI.

T1 sequence (A0A3A0FWV3 1-253 limits assumed): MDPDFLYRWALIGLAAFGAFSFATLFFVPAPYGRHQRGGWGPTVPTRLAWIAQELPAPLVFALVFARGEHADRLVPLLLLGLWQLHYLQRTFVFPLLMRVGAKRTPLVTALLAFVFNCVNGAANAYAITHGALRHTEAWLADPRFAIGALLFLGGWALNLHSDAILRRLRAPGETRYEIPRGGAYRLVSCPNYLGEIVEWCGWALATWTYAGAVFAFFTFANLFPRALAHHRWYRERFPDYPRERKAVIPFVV

As for `C[C@]12C=CC(=O)N[C@@H]1CC[C@@H]1[C@@H]2CC[C@]2(C)[C@@H](C(=O)Nc3cc(C(F)(F)F)ccc3C(F)(F)F)CC[C@@H]12` [Duta, dutasteride], at (UniProt A0A3A0FWV3), the 50% inhibitory concentration (IC50) (commonly the point on the concentration scale where inhibition reaches its midpoint) is 1590 ± 190 nM.

B1: mycobacterial homolog of Insig protein (MvINS) (natural protein)
chain: MRLRISEAVVLFLLGAVAALIGDHSHVVTGTTVYHTDAVPFVWSSPFWFPILVGAATASLAELRLHLPAPRDGVTARQALGGVAAVVGTYVTTALVHAFPVVPVTALVCAAAAITWCVLGDGPGAACGVVIAVIGPAVEIALVQLGVFAYHPDSDGLFGVAPFLAPLYFAFGVVAALLGELAVARRPQLGPPVCDTVSRGPGAG
notes: mycobacterial homolog of Insig, MvINS; PDB 4XU4; theoretical protomer mass 23.6 kDa
For the molecule B1, the stoichiometry N (as a rule, the number of molecules, sites or subunits per partner or assembly) in data set [1] is 3.
